Tests used:
C57bl6j mice [1] = assay: Intestinal lipid (fat) absorption in mice fed a high fat diet; assay type: in vivo
From the text: (§1) Adult male […] purchased at 8 week of age from Janvier Elevage (Le Genest-St-Isle, France) were individually housed and maintained ad libitum on high fat diet and water for 2 weeks. Seven mice were randomly allocated in 3 groups and fed with a high fat diet (lipids represented 50% of daily energy) during 2 weeks. For one kilogram, the composition of the high fat diet was: 235 g of casein, 201 g of saccharose, 3.5 g L-cystine, 85 g of starch, 116 g of maltodextrine, 60 g of cellulose, 12 g of vitamins mix, 51.5 g de mineral mix and 236 g of lard and 13 g of canola oil (UPAE, Jouy en Josas, France). Then, N-oleoyl-ethanolamide or (Z)-(R)-9-octadecenamide, N-(2-hydroxyethyl, 1-methyl) was added to the diet at the concentration of 100 mg/kg/bw. The mice are kept under treatment during 4 weeks. During the nutritional intervention, daily food intake has been monitored and the mice were weighted 3 times per week. During the last week of the experiment, the mice were kept during 5 days in metabolic cages to collect urine and feces. Lipids were extracted from feces after acidification using chloridric acid using chloroform/methanol (2:1 v/v) method. Total lipids were weighted, results were reported in mg of lipids per g of feces weight. Fat absorption was assessed using the following formula: Fat Absorption (% intake)=100*((Fat intake, g/d-fecal fat excretion, g/d)/fat intake). Example 1 was repeated except that N-oleoyl-ethanolamide as added to the diet at two different concentrations (0.1 or 1 g/kg/bw).

C57bl6j mice [2] = assay: Lipid excretion in feces of mice fed a high fat diet; assay type: in vivo
From the text: as §1

[3] = given orally in diet at 0.1 g/kg/bw (group C1 of Table 2), Example 2
[4] = given orally in diet at 100 mg/kg/bw, 4 weeks, Fat Absorption (% intake), Example 1
[5] = given orally in diet at 1 g/kg/bw (group C2 of Table 2), Example 2
[6] = given orally in diet at 100 mg/kg/bw, 4 weeks, feces collected over 5 days in last week, Example 1

Row | Compound | Intestinal Lipid Absorption (%) MV (C57bl6j mice [1]; [3]) [%] | Intestinal Lipid Absorption (%) MV (C57bl6j mice [1]; [4]) [%] | Intestinal Lipid Absorption (%) MV (C57bl6j mice [1]; [5]) [%] | Lipid Excretion (mg/g of Feces) MV (C57bl6j mice [2]; [3]) | Lipid Excretion (mg/g of Feces) MV (C57bl6j mice [2]; [6]) | Lipid Excretion (mg/g of Feces) MV (C57bl6j mice [2]; [5])
1 | CCCCCCCC/C=C\CCCCCCCC(=O)NCCO [C1, N-oleoyl-ethanolamide] | 97.4 | 95.61 | 97.76 | 55.31 mg/g of Feces | 53.7 mg/g of Feces | 45.56 mg/g of Feces
2 | CCCCCCCC/C=C\CCCCCCCC(=O)N[C@H](C)CO [C2, (Z)-(R)-9-octadecenamide, N-(2-hydroxyethyl,1-methyl)] |  | 95.05 |  |  | 65.6 mg/g of Feces | 

From patent publication US20110165198A1, “METHOD FOR REDUCING LIPID ABSORPTION BY AN ANIMAL” (priority 2008, published 2011)
